From patent US20260327263A1, “Anti-Bacterial Peptides” (priority 2023, published 2026)
Several values for one entry are separate records, joined by “and”; a condition that tells them apart may be missing. Equal values may be shown once. Where no end group is shown, it is not given here.

Key:
[1] = test system: Pseudomonas aeruginosa PA BAA-2110; assay: Broth microdilution, PA BAA-2110 (lung infection in cystic fibrosis); type: cell-based, Pseudomonas aeruginosa (BAA-2110); conditions: PA BAA-2110
[2] = test system: mixed bacterial infection (PA, SA and ST); assay: Broth microdilution, mixed bacterial infection; type: cell-based; conditions: mixed infection
Procedure, shortened: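 CLSI broth microdilution in cation-adjusted MH2 broth, ~5×10^5 CFU/mL inoculum grown to OD600 ~0.2, incubated overnight at 37° C. with peptides. Bactericidal effect read as CFU after plating wells on MH2 agar overnight, normalized to untreated media control (100%). Mixed infection: PA, SA and ST colonies co-cultured, then same protocol.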

[3] = test system: Pseudomonas aeruginosa PA CRM-9027; assay: Broth microdilution, PA CRM-9027 (ear-eye infections); type: cell-based, Pseudomonas aeruginosa (CRM-9027); conditions: PA CRM-9027
Hemolysis assay = type: cell-based, human; conditions: human, red blood cells; at respective MIC/MBC concentrations; melittin 3.125 μM = 100%
Experimental: The hemolytic score of the peptide variants and pexiganan (SEQ ID NO: 54) are compared to a strong hemolytic peptide, melittin 12 as a control. […] The minimum peptide concentration corresponding to 10% hemolysis (minimal hemolysis concentration, HC) of E1AM2=50 μM, V8LQ19L=12.5 μM, V8LQ19L C-2=3.125 μM, and pexiganan=12.5 μM respectively. Readings of the melittin at 3.125 μM were normalised to 100%.
Examination of hemolytic activity of ultra-short peptides was performed by isolating the red blood cells (RBCs) from human blood samples by centrifugation (1000 g, 4° C., 10 min) and resuspension in 27 mL PBS. This washing step was repeated four times before the RBCs were diluted to a 10% (v/v) suspension. […] Hemolytic properties of E1AM2 and pexiganan were evaluated with melittin used as a positive control, and PBS as a negative control. The plates were incubated at 37° C., for 30 min and then centrifuged (1258 g, 4° C., 6 min). 75 μL of supernatant were transferred into a flat-bottom clear 96-well plate and the OD576 nm was read. Readings of the melittin sample at 3.125 μM were normalized to 100%.

[4] = Comparison of AMPs in clinical trial with V8LQ19L (Table 13); conditions: ✓ / X
[5] = test system: pathogens isolated from the infected tissues of DFU patients; assay: Antibacterial test on pathogens from infected DFU tissues; type: cell-based
Experimental: The varied colours and morphologies highlight the presence of multiple species and a diverse bacterial population within the infected tissues. Method: Freshly debrided infected tissues from DFU patients are weighed and immersed in 2 ml of MHB (Mueller-Hinton Broth) media for 48 hours to soften the tissues, facilitating the release of bacteria. These samples are subsequently sonicated for 1 minute at a 15A amplitude using a water bath sonicator to release the bacteria. The resultant slurry is plated on MHB media supplemented with 1.5% agar to isolate all bacteria. These bacterial isolates are then evaluated for their antibacterial efficacy following the CLSI (Clinical and Laboratory Standards Institute) guidelines.
In some examples, the effective bacteria killing concentration range for the variant peptides can be, but is not limited to at least about 1.5 μM, at least about 2 μM, at least about 2.5 μM, at least about 5 μM, at least about 7.5 μM, at least about 10 μM, at least about 12.5 μM, at least about 15 μM, at least about 15 μM, at least about 17.5 μM, at least about 20 μM, at least about 25 μM, at least about 35 μM, or at least about 45 μM. In one example, the effective biofilm disruption concentration ranges from about 1.5 μM-25 μM or 1.5 μM-50 μM. In another example, the concentration is between about 40 μM to 50 μM.

[6] = test system: critical and high priority pathogens (WHO); assay: Antibacterial effect against WHO critical and high priority pathogens; type: cell-based; conditions: FIG. 10
[7] = test system: Pseudomonas aeruginosa (PA); assay: Broth microdilution anti-bacterial assay (CLSI), Pseudomonas aeruginosa; type: cell-based, Pseudomonas aeruginosa (ATCC 14213); conditions: PA; for MIC: overnight, 37° C., ≥99% inhibition; for MBC: ≥99% killing
bacteria = assay: Comparison of lead peptide to standard of care (Table 16)

Substance: E1AM2: untagged (E1AM2), KKLLKKWVKLSKKALKLAQSL
- MBC [1]: 6.25 µM
- MIC [1]: 3.125 µM
- MBC [2]: 6.25 µM
- MBC [3]: 3.125 µM
- MIC [3]: 3.125 µM

Substance: KKLLKKWLKLSKKALKLALSL-NH2 [V8LQ19L]
- hemolysis at 0.5 h (Hemolysis assay): ~0%
- Broad spectrum activity [4]: ✓
- Healing support [4]: ✓
- elimination of pathogens in DFU tissue (in words) ([5]; FIG. 11): effective elimination of pathogens
- elimination of bacteria from DFU tissue ([5]; at 50 μM): over 99%
- antibacterial effect against WHO priority pathogens [6]: potent fast-acting, broad-spectrum antibacterial effect
- MIC values against WHO priority pathogens (in words) ([6]; compared to pexiganan and antibiotics): the lowest minimum inhibitory concentration (MIC) values
- MIC [7]: 1.56 µM
- MIC ([7]; listed as VBLQ19L): 1.58 µM
- MBC [7]: 1.56 µM
- MBC ([7]; listed as VBLQ19L): 1.58 µM and 1.56 µM
- AMR Prevention (bacteria): Yes
- Negligible Cytotoxicity (bacteria): Yes
- No Allergic/Adverse Reactions (bacteria): Yes
- Targeted bacteria-specific eradication (bacteria): Yes
- Wound Healing Support (bacteria): Yes
- Antibacterial Efficacy (bacteria; Broad- (spectrum continues on next line)): Broad-
